Measurements taken from PubChem BioAssay (NCI).
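Test compounds were applied to cells in 96-well plates for 48 hours at 5 doses. TGI: concentration producing complete growth inhibition.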

Assays:
Experiment in all cases: NCI anticancer screen, dose series, 48 h
[1] = test system: RXF-631 renal
[2] = test system: DMS 273 small cell lung
[3] = test system: LXFL 529 NSCLC
[4] = test system: DLD-1 colon
[5] = test system: DMS 114 small cell lung
[6] = test system: KM20L2 colon
[7] = test system: XF 498 CNS
[8] = test system: HOP-18 NSCLC

Row | SMILES | TGI [1] [µM] | TGI [2] [µM] | TGI [3] [µM] | TGI [4] [µM] | TGI [5] [µM] | TGI [6] [µM] | TGI [7] [µM] | TGI [8] [µM]
1 | NC(=O)COc1ccccc1 | > 100 | > 100 | > 100 | > 100 | > 100 | > 100 | > 100 | 
2 | COS(=O)c1cc(Cl)cc(Cl)c1O (stereo not drawn) |  |  | > 100 | > 100 | > 100 |  | > 100 | 
3 | CCOC(=O)C(C(=O)Cc1ccccc1)c1ccccc1 (stereo not drawn) |  |  | > 100 | > 100 |  | > 100 | > 100 | 
4 | CCN(CC)CCCNc1ccc2nnn3c4ccc(O)cc4c(=O)c1c23 | 17.4 | 17.9 | 21.2 | 19 | 25.1 | 18.7 | 28.9 | 29.8
5 | C=C1C[C@]23C[C@@]1(O)CC[C@H]2[C@@]12C=C[C@H](O)[C@@](C)(C(=O)O1)[C@H]2[C@@H]3C(=O)O |  | > 100 |  | > 100 | > 100 | > 100 | > 100 | 
